This assay relates to strains of E. cloacae complex. The assay can be described thus: E. cloacae complex polymyxin B survival assay. The class given is cell-based, Enterobacter cloacae complex. To be noted: 5 strains expressing 2-hydroxymyristate vs 5 strains not expressing it; 1, 3 and 10 μg/ml; 4 hours. As for the experimental part: Strains of the Enterobacter complex were selected.
The Enterobacter strains preserved in a tube frozen with 30% glycerol are transplanted in a planktonic culture in 20 ml of an LB culture medium. After incubation at 37° C. overnight, 1 ml of the culture diluted to 10^7 is brought into contact with increasing concentrations of polymyxin B (1 μg/ml, 3 μg/ml and 10 μg/ml). A tube without antibiotic is added as a control.
All the tubes are incubated at 37° C. with shaking for an additional 4 hours. The cultures are then diluted and spread on LB agar Petri dishes.
The dishes are incubated at 37° C. overnight and the colonies are counted.
Percentage survival is computed as follows:
(CFU polymyxin B/CFU control)×100
5 strains of E. cloacae complex expressing 2-hydroxymyristate (2HM) and 5 strains of E. cloacae complex not expressing 2-hydroxymyristate (2HM) were exposed to different concentrations of polymyxin B for 4 hours.

Turning to polymyxin B [polymixin B], the “Survival of strains after exposure to polymyxin B (FIG. 6)” value is “presence of 2-OH myristate on Lipid A generates resistance”.

For the origin of these results see patent US20220411846A1, “METHOD FOR PREDICTING THE VIRULENCE AND PATHOGENICITY OF GRAM-NEGATIVE BACTERIAL STRAINS” (priority 2019, published 2022).
